In patent US20150118229A1, “JAK1 SELECTIVE INHIBITOR AND USES THEREOF” (ABBVIE INC., priority 2013, published 2015):
“And” between values parts separate entries of the source, which are not always exact repeats. Equal entries are not always repeated. “Also recorded” adds a separate entry of the source. Where two headings read alike, the source gives them in different places.

Columns and labels:
[1] = system: IL-15 signaling; experiment: Whole blood assay IL-15 pSTAT5 CD3+; type: cell-based
[2] = system: EPO (Erythroid CFU); experiment: Erythroid bone marrow colony forming assay (EPO); type: cell-based; conditions: read-out: Colony Formation EPO (Erythroid CFU)
[3] = system: IL-7-dependent STAT5 phosphorylation; experiment: Ex vivo IL-7-stimulated pSTAT5 in blood of orally dosed rats; conditions: Rattus norvegicus, po; rats dosed bid 14 days, blood 12 hours after final dose; read-out: IC50, inhibition of IL-7-induced pSTAT5 formation ex vivo
Source text: Unlike other common gamma chain receptors, IL-7 receptors are expressed relatively abundantly on peripheral blood T cells, enabling the use of IL-7 as an agonist in ex vivo stimulation assays. Stimulation of whole blood with IL-7 leads to phosphorylation of STAT5, which can be measured by flow cytometry. Because STAT proteins are Jak kinase substrates, inhibition of their phosphorylation can be considered a mechanistic readout for Jak inhibition.

[4] = Pharmacokinetics in rat; type: in vivo; conditions: for clearance: read-out: CLp (converted); for Vd: read-out: Vss
[5] = [14C]Compound 1 absorption and excretion in bile duct-cannulated rats; type: in vivo, Sprague-Dawley male rats
[6] = Metabolic stability in hepatocytes, human; type: in vitro ADME; conditions: read-out: intrinsic clearance in hepatocytes (converted)
[7] = system: all other CYPs; experiment: Metabolism by all other recombinant CYPs; type: in vitro ADME
[8] = system: CYP3A4; experiment: CYP induction (mRNA) in human hepatocytes, CYP3A4; type: in vitro ADME; conditions: 1, 3, and 10 μM
[9] = 9-month (39 weeks) GLP chronic oral toxicity study in dogs; conditions: both sexes, beagle, in vivo, dog, 9 months (39 weeks)
Description: The GLP-compliant studies each included 4 weeks of oral dosing followed by a 4-week recovery period in both rats and dogs followed by GLP-compliant chronic toxicity studies in rats (6 months of oral dosing) and dogs (9 months of oral dosing).
A subsequent GLP-compliant 9-month chronic dog study was conducted in beagle dogs at dosages of 0, 0.1, 0.5, and 1.5 mg/kg/day by daily oral capsule administration. No Compound 1-related changes in food consumption or body weights were observed during the dosing period.

[10] = Definitive embryofetal development toxicity study in rats; type: in vivo; conditions: rat
Source text: One additional group of 25 time-mated females served as the control and received the vehicle, 0.2% hydroxypropyl methylcellulose (HPMC, high viscosity) in deionized water.

[11] = Definitive embryofetal development toxicity study in rabbits; type: in vivo, New Zealand White rabbits; conditions: rabbit
Source text: One additional group of 20 time-mated females served as the control and received the vehicle, 0.2% hydroxypropyl methylcellulose (HPMC, high viscosity) in deionized water.

[12] = rat, in vivo
Description: The 4-week rat study was conducted at dose levels of 0, 10, 50, 100, and 200 mg/kg/day by daily oral administration (gavage). […] The cause of death was not determined for animals that died.

[13] = biological target: OAT1 (Homo sapiens, UniProt Q4U2R8); experiment: Transporter inhibition, OAT1; conditions: up to 30 μM
[14] = biological target: MATE1 (Homo sapiens, UniProt Q96FL8); experiment: Transporter inhibition, MATE1
[15] = biological target: CYP2B6 (Homo sapiens, UniProt P20813); experiment: CYP inhibition in human liver microsomes, CYP2B6
[16] = biological target: CYP2D6 (Homo sapiens, UniProt P10635); experiment: Metabolism by recombinant CYP2D6; type: in vitro ADME; set-up: from tissue; host or cells: human liver microsomes
Source text: In vitro biotransformation of Compound 1 primarily occurred at imidazolpyrrolopyrazinyl ethyl pyrrolidine moiety.

[17] = female, Sprague-Dawley, rat, plasma, po, 50 mg/kg/day, rat F, oral 50 mg/kg/day, Day 1, mean (SD)
[18] = male, Sprague-Dawley, rat, plasma, po, 10 mg/kg/day, rat M, oral 10 mg/kg/day, Day 1, mean (SD)
[19] = male, Sprague-Dawley, rat, plasma, po, 100 mg/kg/day, rat M, oral 100 mg/kg/day, Day 1, mean (SD)
[20] = plasma, rat, IV 0.3 mg/kg single dose
[21] = plasma, rat, IV 0.3 mg/kg single dose, mean (SD)
[22] = plasma, rat, IV 3 mg/kg single dose
[23] = plasma, rat, IV 3 mg/kg single dose, mean (SD)
[24] = rat, plasma, po, 3 mg/kg, oral 3 mg/kg single dose, mean (SD)

CYP2B6, sequence (P20813 whole entry): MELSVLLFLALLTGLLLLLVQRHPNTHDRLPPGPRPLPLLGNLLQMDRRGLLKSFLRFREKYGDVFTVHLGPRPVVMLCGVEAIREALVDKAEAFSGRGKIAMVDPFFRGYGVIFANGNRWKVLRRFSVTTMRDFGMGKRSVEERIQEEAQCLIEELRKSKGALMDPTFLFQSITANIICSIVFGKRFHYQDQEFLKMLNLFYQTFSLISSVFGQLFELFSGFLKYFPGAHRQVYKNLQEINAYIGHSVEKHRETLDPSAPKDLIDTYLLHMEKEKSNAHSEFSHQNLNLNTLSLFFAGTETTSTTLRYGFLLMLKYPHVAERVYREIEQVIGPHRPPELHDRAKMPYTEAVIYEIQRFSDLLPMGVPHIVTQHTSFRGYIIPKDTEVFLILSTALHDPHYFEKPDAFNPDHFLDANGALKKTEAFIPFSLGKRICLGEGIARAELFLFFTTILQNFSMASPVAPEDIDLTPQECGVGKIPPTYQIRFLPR
CYP2D6, sequence (P10635 whole entry): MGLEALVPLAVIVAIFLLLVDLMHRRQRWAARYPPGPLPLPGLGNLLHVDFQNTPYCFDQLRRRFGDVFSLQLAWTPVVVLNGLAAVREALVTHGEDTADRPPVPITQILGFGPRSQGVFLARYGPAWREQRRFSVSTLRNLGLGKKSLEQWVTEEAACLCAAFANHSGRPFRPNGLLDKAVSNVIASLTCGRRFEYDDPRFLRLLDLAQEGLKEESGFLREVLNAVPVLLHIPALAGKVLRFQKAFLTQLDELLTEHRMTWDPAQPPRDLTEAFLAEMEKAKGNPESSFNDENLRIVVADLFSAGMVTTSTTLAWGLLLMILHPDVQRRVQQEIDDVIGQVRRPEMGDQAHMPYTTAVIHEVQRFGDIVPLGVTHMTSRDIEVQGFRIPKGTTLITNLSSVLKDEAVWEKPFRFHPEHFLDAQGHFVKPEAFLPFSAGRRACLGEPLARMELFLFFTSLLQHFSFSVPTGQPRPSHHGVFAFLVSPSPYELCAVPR
OAT1, sequence (Q4U2R8 whole entry): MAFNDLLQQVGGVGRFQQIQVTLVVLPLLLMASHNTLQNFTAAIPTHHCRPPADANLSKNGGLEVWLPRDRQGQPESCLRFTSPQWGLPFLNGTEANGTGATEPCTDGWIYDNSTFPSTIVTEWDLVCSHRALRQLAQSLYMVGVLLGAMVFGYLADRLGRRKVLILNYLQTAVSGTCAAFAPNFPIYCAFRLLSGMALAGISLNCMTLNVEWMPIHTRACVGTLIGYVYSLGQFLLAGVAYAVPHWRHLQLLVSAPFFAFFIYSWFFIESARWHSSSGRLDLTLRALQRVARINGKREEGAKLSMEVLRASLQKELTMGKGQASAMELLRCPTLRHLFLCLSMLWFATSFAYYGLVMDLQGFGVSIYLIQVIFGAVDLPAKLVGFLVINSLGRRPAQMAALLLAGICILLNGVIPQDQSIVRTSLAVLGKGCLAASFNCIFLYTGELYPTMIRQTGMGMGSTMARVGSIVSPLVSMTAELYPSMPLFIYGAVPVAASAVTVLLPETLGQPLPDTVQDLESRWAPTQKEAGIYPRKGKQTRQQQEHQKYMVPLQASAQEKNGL
MATE1, sequence (Q96FL8 whole entry): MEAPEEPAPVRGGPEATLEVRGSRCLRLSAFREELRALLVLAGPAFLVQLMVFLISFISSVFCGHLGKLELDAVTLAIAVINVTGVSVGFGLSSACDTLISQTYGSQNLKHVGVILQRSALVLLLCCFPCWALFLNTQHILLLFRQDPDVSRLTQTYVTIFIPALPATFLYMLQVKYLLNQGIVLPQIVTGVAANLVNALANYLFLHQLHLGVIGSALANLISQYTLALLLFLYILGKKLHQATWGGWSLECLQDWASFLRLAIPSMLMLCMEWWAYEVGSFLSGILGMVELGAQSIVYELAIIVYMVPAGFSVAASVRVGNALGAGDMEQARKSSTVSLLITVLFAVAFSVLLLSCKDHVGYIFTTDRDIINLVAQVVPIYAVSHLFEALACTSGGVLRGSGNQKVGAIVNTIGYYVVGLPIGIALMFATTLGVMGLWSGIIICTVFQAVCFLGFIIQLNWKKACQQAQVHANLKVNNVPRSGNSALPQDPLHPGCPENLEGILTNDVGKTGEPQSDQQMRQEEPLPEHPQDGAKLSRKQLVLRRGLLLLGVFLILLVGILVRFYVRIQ

Work on `CC[C@@H]1CN(C(=O)NCC(F)(F)F)C[C@@H]1c1cnc2cnc3[nH]ccc3n12` [Compound 1, (3S,4R)-3-ethyl-4-(3H-imidazo[1,2-a]pyrrolo[2,3-e]pyrazin-8-yl)-N-(2,2,2-trifluoroethyl)pyrrolidine-1-carboxamide] yielded an IC50 ([1]; read-out: IL-15 (pSTAT5, CD3+)) of 16 nM, an IC50 ([1]; whole blood, read-out: IC50 IL-15 pSTAT5 CD3+) of 16 nM and an IC50 [2] of 400 nM. It also gave an IC50 [3] of about 20 nM, an AUC ([4]; female, Sprague-Dawley, plasma, rat F, oral 10 mg/kg/day, Day 1, mean (SD)) of 1870 ng·h/mL and an AUC at 29 days ([4]; female, Sprague-Dawley, plasma, rat F, oral 10 mg/kg/day, Day 29, mean (SD)) of 2280 ng·h/mL. It also gave an AUC ([4]; female, Sprague-Dawley, plasma, rat F, oral 50 mg/kg/day, Day 1, mean (SD)) of 22400 ng·h/mL, an AUC at 29 days ([4]; female, Sprague-Dawley, plasma, rat F, oral 50 mg/kg/day, Day 29, mean (SD)) of 33200 ng·h/mL and an AUC ([4]; female, Sprague-Dawley, plasma, rat F, oral 100 mg/kg/day, Day 1, mean (SD)) of 54100 ng·h/mL. The AUC at 29 days ([4]; female, Sprague-Dawley, plasma, rat F, oral 100 mg/kg/day, Day 29, mean (SD)) was 63800 ng·h/mL, the AUC ([4]; female, Sprague-Dawley, plasma, rat F, oral 200 mg/kg/day, Day 1, mean (SD)) was 108000 ng·h/mL and the Cmax ([4]; female, Sprague-Dawley, rat, plasma, po, 10 mg/kg/day, rat F, oral 10 mg/kg/day, Day 1, mean (SD)) was 468 ng/mL. It also gave a Cmax at 29 days ([4]; female, Sprague-Dawley, rat, plasma, po, 10 mg/kg/day, rat F, oral 10 mg/kg/day, Day 29, mean (SD)) of 650 ng/mL, a Cmax [4, 17] of 5160 ng/mL and a Tmax [4, 17] of 2.2 h. The Cmax ([4]; female, Sprague-Dawley, rat, plasma, po, 100 mg/kg/day, rat F, oral 100 mg/kg/day, Day 1, mean (SD)) was 13500 ng/mL, the Cmax ([4]; female, Sprague-Dawley, rat, plasma, po, 200 mg/kg/day, rat F, oral 200 mg/kg/day, Day 1, mean (SD)) was 18200 ng/mL and the AUC ([4]; male, Sprague-Dawley, plasma, rat M, oral 10 mg/kg/day, Day 1, mean (SD)) was 1390 ng·h/mL. The AUC at 29 days ([4]; male, Sprague-Dawley, plasma, rat M, oral 10 mg/kg/day, Day 29, mean (SD)) was 1490 ng·h/mL, the AUC ([4]; male, Sprague-Dawley, plasma, rat M, oral 50 mg/kg/day, Day 1, mean (SD)) was 15900 ng·h/mL and the AUC at 29 days ([4]; male, Sprague-Dawley, plasma, rat M, oral 50 mg/kg/day, Day 29, mean (SD)) was 16800 ng·h/mL. It also gave an AUC ([4]; male, Sprague-Dawley, plasma, rat M, oral 100 mg/kg/day, Day 1, mean (SD)) of 24900 ng·h/mL, an AUC at 29 days ([4]; male, Sprague-Dawley, plasma, rat M, oral 100 mg/kg/day, Day 29, mean (SD)) of 40800 ng·h/mL and an AUC ([4]; male, Sprague-Dawley, plasma, rat M, oral 200 mg/kg/day, Day 1, mean (SD)) of 50400 ng·h/mL. The Cmax [4, 18] was 224 ng/mL, the Tmax [4, 18] was 2.2 h and the Cmax ([4]; male, Sprague-Dawley, rat, plasma, po, 50 mg/kg/day, rat M, oral 50 mg/kg/day, Day 1, mean (SD)) was 3030 ng/mL. The Cmax [4, 19] was 3910 ng/mL, the Tmax [4, 19] was 3.2 h and the Tmax at 29 days ([4]; male, Sprague-Dawley, rat, plasma, po, 100 mg/kg/day, rat M, oral 100 mg/kg/day, Day 29, mean (SD)) was 3.2 h. For the same compound, the Cmax ([4]; male, Sprague-Dawley, rat, plasma, po, 200 mg/kg/day, rat M, oral 200 mg/kg/day, Day 1, mean (SD)) was 7250 ng/mL, the half-life [4, 20] was 1 h and the AUC(0-inf) [4, 21] was 80 ng·h/mL. For the same compound, the clearance [4, 21] was 63.3 mL/min/kg, the Vd [4, 20] was 2.7 L/kg and the half-life [4, 22] was 3 h. For the same compound, the AUC(0-inf) [4, 23] was 1550 ng·h/mL, the clearance [4, 23] was 33.3 mL/min/kg and the Vd [4, 22] was 2.2 L/kg. It also gave a clearance ([4]; plasma, rat, IV) of 33.3 to 63.3 mL/min/kg, a half-life ([4]; plasma, rat, oral 3 mg/kg single dose) of 5.2 h and an AUC(0-inf) ([4]; plasma, rat, oral 3 mg/kg single dose, mean (SD)) of 472 ng·h/mL. It also gave a Vc ([4]; rat, IV 0.3 mg/kg single dose) of 1.8 L/kg, a Vβ ([4]; rat, IV 0.3 mg/kg single dose) of 5.7 L/kg and a Vc ([4]; rat, IV 3 mg/kg single dose) of 0.46 L/kg. For the same compound, the Vβ ([4]; rat, IV 3 mg/kg single dose) was 9.4 L/kg, the F ([4]; rat, oral 3 mg/kg single dose, mean (SD), 3 mg/kg) was 30.5% and 30.5 (11.8) % and the Cmax [4, 24] was 95 ng/mL. For the same compound, the Tmax [4, 24] was 2.2 h, the “mean total recovery of dosed radioactivity” value ([5]; intravenous) was 96.0% and the “radioactivity excreted into bile” value ([5]; intravenous) was 49.7 % of dose. For the same compound, the “radioactivity excreted into urine” value ([5]; intravenous) was 23.7 % of dose, the “mean total recovery of dosed radioactivity” value ([5]; oral) was 96.8% and the “parent drug excreted unchanged in urine” value ([5]; oral) was 9%. For the same compound, the “radioactivity excreted into bile” value ([5]; oral) was 52.6 % of dose, the “radioactivity excreted into urine” value ([5]; oral) was 11.1 % of dose and the “dose absorbed (radioactivity in bile and urine)” value ([5]; single oral dose 3 mg/kg) was “at least 63.7%”. For the same compound, the CLint scaled at 1 μM [6] was 6.1 mL/min/kg, the “percentage of parent remaining” value [7] was “greater than 98.0%” and the “mRNA expression of CYP3A4” value [8] was “did not increase”. For the same compound, the NOAEL at 9 months [9] was 1.5 mg/kg/day, the “maternal clinical observations, body weights, food consumption, macroscopic examinations” value ([10]; GD 6 to 17) was “No Compound 1-related effects” and the NOEL ([10]; oral, GD 6-17) was “NOEL < 5 mg/kg/day”. The “maternal and fetal examinations” value ([11]; 2.5 and 10 mg/kg/day) was “no Compound 1-related effects”, the NOEL ([11]; oral, GD 7-19) was “NOEL = 10 mg/kg/day” and the “Adverse Findings” value ([12]; both, 4 weeks) was 100: Kidneys-cortical tubular. The dose-limiting effects [12] was “mortality”, the “change in RBC counts compared to control means” value ([12]; 100 mg/kg/day) was −13% and the “change in hematocrit compared to control means” value ([12]; 100 mg/kg/day) was −14%. For the same compound, the “increase in mean phosphorus (up to, vs control mean)” value ([12]; 100 mg/kg/day) was “+10%”, the “adverse events severe, serious, or fatal” value (Study M13-845) was “None” and the “number of adverse events in combined treatment groups” value (Substudy 2, RA on MTX, 6, 12, 24 mg BID, all reported as not related) was 7. The “subjects reporting treatment emergent AEs (6 out of 42)” value (healthy volunteers, as printed under Substudy 1) was 14.3%, the “inhibition of OAT1 uptake” value [13] was “No significant inhibition” and the IC50 [14] was 11000 nM. The “time-dependent inhibition of CYP2B6” value ([15]; human liver microsomes) was “No obvious time-dependent inhibition”, the “inhibition of CYP2B6” value ([15]; up to 30 μM) was “did not inhibit; also recorded: not an inhibitor” and the “percentage of parent remaining” value [16] was 73.4%.
